Consider 14 molecules from patent publication US20140378529A1, “COLLATERAL GENE INACTIVATION BIOMARKERS AND TARGETS FOR CANCER THERAPY” (Board Regents, The University of Texas System, priority 2011, published 2014).

For orientation: pKa means the negative logarithm of the acid dissociation constant.

Where two headings read alike, the source gives them in different places.

The target of one data set is enolase. As to conditions: cited from earlier work.
For data set [1] the following is noted: Table 5, cited from earlier work.
A further data set concerns ENO1-null D423-MG cells. Briefly: Relative growth with receptor tyrosine kinase inhibitors or rapamycin. Type of data set: cell-based, human. As to conditions: combination of sorafenib, lapatinib and PHA665752.
In data set [2] the test system is ENO1-null cells (D423-MG, Gli56). In words: Cell growth / toxicity in ENO1-null GBM cells. It is filed as cell-based, human. The settings on record: for growth of ENO1-null cells: doxycycline-inducible TRIPZ, D423-MG. As to the method:
(§1) For crystal violet assays, 10,000 cells were seeded in a 6-well plate for each time point. At the indicated time point, cells were fixed with 10% formalin and stained with crystal violet solution for 1 hour. Dye extraction was performed using 10% acetic acid solution and absorbance was read at 590 nm. Cell titer Glo® experiments were performed as indicated by the manufacturer. 1000 cells/well were plated in a 96 well plate for each time point and luminescence readings were taken every 24 hours. All experiments were performed in triplicate.
(§2) Structure and purity were verified by NMR. […] Given the instability of the compound, media was replaced every 5 days and fresh inhibitor added with fresh media.
(§3) Cell growth of shRNA- or PhAH-treated cell lines was assayed either through crystal violet staining or using the Promega CellTiter-Glo proliferation kit (Roche) or alternatively, in vivo, by measuring confluence with the IncuCyte (Essen BioScience). Growth curves using the IncuCyte were generated by imaging every 2 hours with quadruplicate replicates. For crystal violet assays, 10^4 cells were seeded in a 6-well plate for each time point. At the indicated time point, cells were fixed with 10% formalin and stained with crystal violet solution for 1 h. Dye extraction was performed using 10% acetic acid solution, and absorbance was read at 590 nm. CellTiter-Glo experiments were performed according to the manufacturer's instructions; 10^3 cells/well were plated in a 96-well plate for each time point, and luminescence readings were taken every 24 h. All experiments were performed in triplicate. Soft agar (anchorage-independent) growth was monitored in 6-well plates seeded with 10^4 cells of the indicated genotype. The medium contained DMEM with 10% FBS; the top agar contained 0.4% low melting agarose, while the bottom agar contained 1% low melting agarose. Growth was monitored by fluorescence (GFP) and after 28 days colonies were stained with iodonitrotetrazolium chloride (Sigma-Aldrich) and counted.
Structure and purity were verified by NMR. […]

In the next data set the test system is D423-MG cells. Briefly: Orthotopic brain tumor formation. Type of data set: in vivo, SCID mice. The settings on record: D423-MG injected intracranially; vs shNT. The method, then: Injection of D423-MG cells was performed as previously described (in Zheng et al., 2008) SCID mice (Charles River) aged 6-12 weeks were placed into stereotactic apparatus equipped with a Z axis (Stoelting). A hole was bored in the skull 0.5 mm anterior and 3.0 mm lateral to the bregma using a dental drill. One hundread thousand cells in Hanks Buffered Salt Solution were injected into the right caudate nucleus 3 mm below the surface of the brain using a 10-μl Hamilton syringe with an unbeveled 30 gauge needle. The scalp was closed using a 9-mm Autoclip Applier. Animals were followed daily for the development of neurological deficits.
The in vivo tumorigenic potential of D423-MG cells transduced with non-targeting hairpin or shENO2-3 delivered through pGIPZ was determined as previously described (Zheng et al., 2008). SCID mice (Charles River) under deep anesthesia were placed into a stereotactic apparatus equipped with a z axis (Stoelting). Then, 3×10^5 cells were injected intracranially into the right caudate nucleus 3 mm below the surface of the brain, using a 10-μl Hamilton syringe. The animals were followed daily for development of neurological deficits. All mice experiments were performed with the approval of the Harvard Cancer Center and Dana-Farber Cancer Institute Institutional Animal Care and Use Committee.

The next data set relates to D423-MG ENO1-null cells. In words: Soft agar colony formation assay. Type of data set: cell-based, human. The settings on record: vs shNT. As to the method:
Anchorage-independent growth assays were performed in duplicate or triplicate in 6 well plates. 10^4 of indicated cells per well were seeded in DMEM+10% FBS containing 0.4% low-melting agarose on the top of bottom agar containing 1% low-melting agarose DMEM+10% FBS. After 14-21 days, colonies were stained with iodonitrotetrazoliumchloride (Sigma-Aldrich) and counted.
as §3, with “At the indicated time point, cells were fixed with 10% formalin and stained with crystal violet solution for 1 h.” left out, “All experiments were performed in triplicate.” left out, “The medium contained DMEM with 10% FBS; the top agar contained 0.4% low melting agarose, while the bottom agar contained 1% low melting agarose.” left out

A further data set relates to enolase 2 protein. Briefly: shRNA knockdown of ENO2 expression (western blot). Type of data set: cell-based, human. As to conditions: pGIPZ vector; D423-MG and D502-MG; vs shNT. From the text: Two of these hairpins were in the pLKO.1 vector (ShENO2-1 and shENO2-2) and the remaining two were in the Expression Arrest GIPZ (shENO2-3) and TRIPZ (shENO2-4) shRNAmir vectors (Open Biosystems, Huntsville, Ala.). The hairpin in the GIPZ vector was cloned into the TRIPZ vector using a protocol provided by the manufacturer. The TRIPZ vector is a doxycycline inducible system with a Red fluorescent protein reporter which is only expressed upon doxycycline induction. Recombinant lentivirus was produced by transient transfection of 293T cells following a standard protocol. Briefly, 72 μg of the shRNA plasmid, 54 μg of Delta 8.9 and 18 μg of VSVG plasmids were transfected using Fugene® (Roche, Indianapolis, Ind.) into 293T cells plated in 245 mm2 dishes. Viral supernatant was collected 72 hours after transfection, concentrated by centrifugation at 23,000 rpm and resuspended in cell growth medium. For transduction, viral solutions were added to cell culture medium containing 4 μg/mL polybrene; 48 hours after infection cells were selected using 2 μg/mL puromycin and tested for ENO2 knockdown by western blot.
The hairpin in the GIPZ vector was cloned into the TRIPZ vector using a protocol provided by the manufacturer. The TRIPZ vector is a doxycycline-inducible system with a red fluorescent protein reporter that is expressed only upon doxycycline induction. […]
In general terms: Immunoblotting shows a protein as a band on a membrane.

Data set [3] deals with ENO1 heterozygous cells (D502-MG and U343). In words: Cell growth / toxicity in ENO1 heterozygous GBM cells. It is filed as cell-based, human. The method, then:
as §1, §2
(§4) Cell growth of shRNA- or PhAH-treated cell lines was assayed either through crystal violet staining or using the Promega CellTiter-Glo proliferation kit (Roche) or alternatively, in vivo, by measuring confluence with the IncuCyte (Essen BioScience). […] Dye extraction was performed using 10% acetic acid solution, and absorbance was read at 590 nm. CellTiter-Glo experiments were performed according to the manufacturer's instructions; 10^3 cells/well were plated in a 96-well plate for each time point, and luminescence readings were taken every 24 h. […] Soft agar (anchorage-independent) growth was monitored in 6-well plates seeded with 10^4 cells of the indicated genotype. […]

In data set [4] the test system is ENO1 WT GBM cells and normal astrocytes. Briefly: Cell growth / toxicity in ENO1 WT GBM cells and normal astrocytes. It is filed as cell-based, human. As to the method: as §1, §2, §4
The target of the next data set is yeast enolase (Saccharomyces cerevisiae, UniProt P00924). The settings on record: read-out: inhibitory constant on yeast enolase; Anderson et al., 1984; cited from earlier work.
In the next data set the test system is SK-MEL-5 cells. In words: Borrelidin growth, SK-MEL-5 (TARS WT). Type of data set: cell-based, human. From the text:
(§5) The effect of various concentrations of Borrelidin on the growth of the four melanoma cells lines over time was also studied (FIG. 21).

Data set [5] concerns SK-MEL-2 cells. The settings on record: NCI-60 database; cited from earlier work.
Another data set relates to HMEL cells. In words: Borrelidin growth, HMEL (TARS WT). It is filed as cell-based, human.
Excerpt: as §5

The test system of a further data set is 451 Lu cells. In words: Borrelidin growth, 451 Lu (TARS deficient). Type of data set: cell-based, human.
Excerpt: as §5

Data set [6] has as its system SK-MEL-2 cells. Briefly: Borrelidin growth and cytotoxicity, SK-MEL-2 (TARS Het). Type of data set: cell-based, human. As to the method: as §5
To this end, the inventors ran the same live growth assay, except starting with a high confluence of SK-MEL-2 cells at time zero. Under these conditions it became apparent that concentrations of Borrelidin at or above 15 nM are cytotoxic to SK-MEL-2 cells, while lower concentrations are growth inhibitory (FIG. 22).

The mark [7] stands for this setting: Table 4, known enolase inhibitors.
[8] abbreviates: Table 5, published enolase inhibitors.
The mark [9] stands for this setting: printed: SK-MEL-2 cell line, which is also wild-type for TARS.

Chain of yeast enolase (P00924 whole entry): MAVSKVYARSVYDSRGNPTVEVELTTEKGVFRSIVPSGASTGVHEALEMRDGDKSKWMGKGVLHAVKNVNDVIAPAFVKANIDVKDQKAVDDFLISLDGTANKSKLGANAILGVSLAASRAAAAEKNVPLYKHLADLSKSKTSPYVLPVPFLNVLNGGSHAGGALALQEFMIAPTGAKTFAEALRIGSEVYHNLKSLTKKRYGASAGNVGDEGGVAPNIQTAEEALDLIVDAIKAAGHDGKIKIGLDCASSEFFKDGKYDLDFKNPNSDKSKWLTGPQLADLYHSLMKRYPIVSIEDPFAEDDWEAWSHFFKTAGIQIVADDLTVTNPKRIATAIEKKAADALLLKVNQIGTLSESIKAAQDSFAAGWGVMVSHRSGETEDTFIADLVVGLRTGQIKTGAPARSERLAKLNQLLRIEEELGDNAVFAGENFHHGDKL
Excerpt for ENO1-null D423-MG cells: Given the instability of the compound, the medium was replaced every 5 days and fresh inhibitor added with fresh medium.

For `O=[N+]([O-])CCP(=O)(O)O` [(nitroethyl)phosphonate], the Ki on enolase (setting [7]) and at enolase (setting [8]) was 1000 nM in each case. Besides, the pKa in [1] is 8.5.
With `Cc1[nH]c(/C=C2\C(=O)Nc3ccc(S(=O)(=O)Cc4c(Cl)cccc4Cl)cc32)c(C)c1C(=O)N1CCC[C@@H]1CN1CCCC1` [PHA665752], the “sensitivity of ENO1-null D423-MG cells versus ENO1 WT GBM cell lines” value in the data set with ENO1-null D423-MG cells is recorded as “no more sensitive”.
As to `F` [Fluoride], the figures for the “Ki (M)” value on enolase (setting [7]) and at enolase (setting [8]) were “Varied depending” and “Varied”, respectively.
For the molecule “5′-GGGACTGAGAACAAATCCA-3′ (expressed or natural sequence) [shENO2-4]”, the “growth of ENO1-null cells” value in data set [2] is given as “dramatically inhibited growth”.
Regarding `O=[N+]([O-])C(CO)CP(=O)(O)O` (centres unmarked) [(3-hydroxy-2-nitropropyl)phosphonate], the Ki at enolase (setting [7]) was 1 nM; at enolase (setting [8]) it was 6 nM. Also, the pKa in data set [1] is 8.1.
As to d-(phosphonoethyl)nitrolate, the Ki on enolase (setting [7]) and on enolase (setting [8]) was 14 nM throughout.
In the case of “5′-CGGCCTTCAACGTGATCAA-3′ (expressed or natural sequence) [shENO2-3]”, the “in vivo tumorigenic properties” value in the data set on D423-MG cells is listed as “dramatically decreased”. In addition, the “growth of ENO1-null cells” value in data set [2] is “dramatically inhibited growth”. In addition, the cell proliferation result in data set [2] (pGIPZ, only in the context of ENO1 genomic deletion (D423-MG)) is “dramatically slowed”. The “soft agar colony formation” value in the data set with D423-MG ENO1-null cells is “dramatically decreased”. Besides, the “reduction of expression of ENO2” value in the data set with enolase 2 protein is on record as greater than 70%.
Consider 2-fluoro-2-phosphonoacetohydroxamate, for which the Ki at enolase (setting [8]) is 1400 nM. Also, the pKa in data set [1] is given as 8.1.
Consider `CC[C@H]1/C=C/C=C/C[C@@H](C)[C@H](O)[C@@](C)(O)C(=O)[C@@H](C)[C@H](O)[C@@H](C)C(=O)[C@@H](C)[C@H](O)[C@@H](C)/C=C/C(=O)O[C@@H]2[C@H](C)[C@H](CC1)O[C@]1(CC[C@H](C)[C@H](C[C@@H](C)O)O1)[C@H]2C` [oligomycin], for which the “effect of oligomycin on its own” value in data set [3] (oligomycin 10 nM) was “minimal effects”.
`CS(=O)(=O)CCNCc1ccc(-c2ccc3ncnc(Nc4ccc(OCc5cccc(F)c5)c(Cl)c4)c3c2)o1` [lapatinib]: the “sensitivity of ENO1-null D423-MG cells versus ENO1 WT GBM cell lines” value in the data set with ENO1-null D423-MG cells is on record as “no more sensitive”.
For `NC=C(OP(=O)(O)O)C(=O)O` [3-aminoenolpyruvate-2-phosphate], the Ki on enolase (setting [7]) and on enolase (setting [8]) was 100 nM each time.
With `O=C(CP(=O)(O)O)NO` [PhAH, phosphonoacetohydroxamate], the “times lower doses for similar growth inhibition compared with normal human astrocytes” value in data set [3] is on record as “about 8 times”. Also, in [4], the “concentration above which PhAH has more than minimal effect on growth” value is recorded as “higher than 50 μM”. Besides, the pKa in data set [1] (listed as Phosphonoacetohydroxamate) was 10.2. The Ki on yeast enolase is 0.015 nM.
In the case of `C[C@@H]1C[C@H](C)C[C@H](C)[C@@H](O)CC(=O)O[C@H]([C@@H]2CCC[C@H]2C(=O)O)C/C=C/C=C(/C#N)[C@H](O)[C@@H](C)C1` [Borrelidin], the “effect on growth at low concentrations” value in the data set on SK-MEL-5 cells (SK-MEL-5) is reported as “minimal to no effect”. For the same molecule, in the data set on SK-MEL-5 cells (setting [9]), the “sensitivity of growth at 62.5 nM” value is “partially sensitive” and the “sensitivity of growth at concentrations less than 31.25 nM” value is given as “largely resistant”. Further, the “Sensitivity to borrelidin (IC50) in a panel of cancer cell lines” value in the data set on SK-MEL-2 cells [5] is recorded as “lowest IC50”. The “effect on growth at low concentrations” value in the data set with HMEL cells is given as “minimal to no effect”. The “sensitivity of growth at the highest tested concentration” value in the data set with HMEL cells (62.5 nM) was “resistant”. For the same molecule, in the data set on 451 Lu cells, the “concentration that nearly inhibited growth” value is reported as 62.5 nM and the “sensitivity to Borrelidin treatment” value is “intermediate sensitivity”. Moreover, in the data set with SK-MEL-2 cells [6] (SK-MEL-2), the “effect on growth at low concentrations” value was “stalled the growth” and the “lowest concentration with at least partial sensitivity” value is no less than 3.9 nM. The cytotoxic concentration in the data set with SK-MEL-2 cells [6] (SK-MEL-2, high confluence at time zero) is no less than 15 nM. Further, in the data set with SK-MEL-2 cells [6] (SK-MEL-2, low initial cell density), the “concentration that completely inhibited growth” value was determined as 31.25 nM.
Consider `O=CC(OP(=O)(O)O)C(=O)O` [D-tartronate semialdehyde phosphate], for which the Ki on enolase (setting [7]) and at enolase (setting [8]) was 10000 nM each time.
